What was measured:
Format in all cases: biochemical
[1] = target: T1, BlaC (β-lactamase of Mycobacterium tuberculosis) (Mycobacterium tuberculosis, UniProt P9WKD3, G144N)
[2] = target: T1, BlaC (β-lactamase of Mycobacterium tuberculosis); remark: listed apart in the source
[3] = target: BlaC (β-lactamase of Mycobacterium tuberculosis) (Mycobacterium tuberculosis, UniProt P9WKD3, K250R)
[4] = target: BlaC (β-lactamase of Mycobacterium tuberculosis) (Mycobacterium tuberculosis, UniProt P9WKD3, R229S)

SMILES	nitrocefin hydrolysis by purified enzyme [1]	nitrocefin hydrolysis progress curves with 10 μM clavulanic acid (reduced inhibi) [2]	nitrocefin hydrolysis progress curves with 10 μM clavulanic acid (reduced inhibi) [3]	nitrocefin hydrolysis progress curves with 10 μM clavulanic acid [4]
O=C(Cc1cccs1)N[C@@H]1C(=O)N2C(C(=O)O)=C(/C=C/c3ccc([N+](=O)[O-])cc3[N+](=O)[O-])CS[C@H]12 [nitrocefin]	is plotted for wild-type (WT) BlaC and single-amino-acid mutants			
O=C(O)[C@H]1/C(=C/CO)O[C@@H]2CC(=O)N21 [clavulanic acid]		The G132N and K234R mutations convey resistance to inhibition, maintaining some level of activity even after prolonged exposure.	The G132N and K234R mutations convey resistance to inhibition, maintaining some level of activity even after prolonged exposure.	The R213S mutant was found to require more time than wt BlaC to reach full inhibition.

— paper PMC8284444, “Two β-Lactamase Variants with Reduced Clavulanic Acid Inhibition Display Different Millisecond Dynamics” (Antimicrobial Agents and Chemotherapy, 2021)
